Experimental data taken from patent US20070167377A1, “Inhibitors of glycinamide ribonucleotide transformylase” (priority 2002, published 2007).
Entries after “also recorded” stand apart in the source; their conditions may differ.

How the values were obtained:
[1] = system: CCRF-CEM/FPGS^− cell line; assay: Cytotoxic assay, FPGS deficient mutant; type: cell-based, human; conditions: lacks folylpolyglutamate synthase
Method: (§1) The cytotoxic activity of the compounds was measured using CCRF-CEM human leukemia cells, as described previously (Boger, D. L., et al., Bioorg. Med. Chem. 1997, 5, 1847-1852). Two mutant cell lines, CCRF-CEM/MTX and CCRF-CEM/FPGS^− were used to determine the dependence on the reduced folate active transport system and folylpolyglutamate synthetase (FPGS), respectively (Jansen, G., et al., Cancer Res. 1989, 49, 2455-2459).

[2] = molecular target: thymidylate synthetase (TS) (Homo sapiens, UniProt P04818); assay: Thymidylate synthetase inhibition; type: biochemical
CCRF-CEM/MTX cell line = assay: Cytotoxic assay, reduced folate carrier deficient mutant; type: cell-based, human; conditions: impaired reduced folate carrier
Method: as §1

E. coli GAR Tfase = E. coli GAR Tfase (Escherichia coli, UniProt P08179); assay: E. coli GAR Tfase inhibition; type: biochemical; conditions: E. coli GAR Tfase
Method: (§2) GAR and AICAR Tfase inhibition studies were conducted as previously detailed^28 with the exception that the AICAR Tfase inhibition was conducted in the absence of 5 mM β-mercaptoethanol and screened with 10 nM enzyme, […] inhibitor and […] of cofactor. The DHFR inhibition study was conducted as previously detailed with 10 nM enzyme, […] H2F, […] NADPH and […] inhibitor.
The Ki values for the folate analogues were measured as previously described (Boger, D. L., et al., Bioorg. Med. Chem. 1997, 5, 1817-1830). Briefly, each compound was dissolved in dimethyl sulfoxide (DMSO) and then diluted in assay buffer. […] Thus, all assays were conducted by mixing 10 μM 10-formyl-5,8-dideazafolate (fDDF), 20 μM inhibitor in total volume of 1 mL buffer (0.1 M HEPES, pH 7.5) at 26° C., and the reaction initiated by the addition of 76 nM E. coli or human GAR Tfase. The assay monitors the deformylation of fDDF (Δε=18.9 mM^−1 cm^−1 at 295 nm) resulting from the transfer of the formyl group to β-GAR.

CCRF-CEM cell line = assay: CCRF-CEM cytotoxic assay; type: cell-based, human; conditions: Homo sapiens
Method: as §1

human AICAR Tfase = human AICAR Tfase (Homo sapiens, UniProt P31939); assay: AICAR Tfase inhibition; type: biochemical
Method: as §2

Solubility = type: physicochemical; conditions: pH 7-8
Chemical stability = type: physicochemical
DHFR = DHFR (Escherichia coli, UniProt P0ABQ4); assay: DHFR inhibition (101, 102); type: biochemical

Nc1nc(N)c(CCCC(C(=O)C(F)(F)F)c2ccc(C(=O)N[C@@H](CCC(=O)O)C(=O)O)cc2)c(=O)[nH]1 (stereo partly drawn) [Compound 101, N-{4-[4-(2,4-Diamino-6-oxo-1,6-dihydropyrimidin-5-yl)-1-(2,2,2-trifluoroacetyl)butyl]benzoyl}-L-glutamic acid]
cytotoxic activity (in words) [1]: lacked or lost activity | inhibition of TS (in words) [2]: inactive | Ki ([2]; TS): > 100 µM | cytotoxic activity (in words) (CCRF-CEM/MTX cell line): lost activity | Ki (E. coli GAR Tfase): 1.9 µM | IC50 (CCRF-CEM cell line; in the presence of media purines): > 100 µM | IC50 (CCRF-CEM cell line; purines (hypoxanthine) absent in the media): 0.016 µM | inhibition of AICAR Tfase (in words) (human AICAR Tfase): inactivity; also recorded: inactive | Ki (human AICAR Tfase; AICAR Tfase): > 100 µM | solubility (Solubility): excellent | chemical stability (in words) (Chemical stability): chemically stable | stability at pH 7-8 (Chemical stability; pH 7-8 buffers in the presence of air, 7 days): excellent; also recorded: no decomposition or reaction | inhibition of DHFR (in words) (DHFR): inactive | Ki (DHFR; DHFR): > 100 µM
